The values below come from US11584747B2, “Substituted pyridopyrimidinonyl compounds useful as T cell activators” (BRISTOL-MYERS SQUIBB COMPANY, priority 2019, dated 2023).

Read-outs that look alike come from different tables or passages of the source.

In one assay the target is human DGKζ (Homo sapiens (Human), UniProt Q13574). The assay can be described thus: DGKζ LIPGLO assay (extruded liposome substrate, ADP-Glo luminescence). The assay is classed as biochemical. In general terms: ADP-Glo turns the ADP formed in a reaction into a luminescent signal.
For a further assay, the target named is human DGKα (Homo sapiens (Human), UniProt P23743). The assay can be described thus: DGKα ADPGLO assay (detergent/lipid micelle substrate). The assay is classed as biochemical. How it is done: DGK Alpha ADPGLO (Truncated) IC50 (uM)
The detergent/lipid micelle was prepared by combining 15 g phosphatidylserine (Avanti 840035P) and 1 g diacylglycerol (8008110) and dissolving into 150 mL chloroform in a 2 L round bottom flask. Chloroform was removed under high vacuum by rotary evaporation. […] The lipid/detergent solution was split into 5 mL aliquots and stored at −80° C.

[1] abbreviates: liposome assay, read-out: DGK zeta LIPGLO IC50.
Where [2] appears, read: truncated DGK alpha, read-out: DGK alpha ADPGLO (Truncated) IC50.
Setting [3] is: liposome (LIPGLO) assay, read-out: DGK zeta (liposome assay) IC50.
Setting [4] is: ADPGLO assay, read-out: DGK alpha ADPGLO IC50.

human DGKα, sequence (P23743 whole entry, looked up, the tested form may be a part): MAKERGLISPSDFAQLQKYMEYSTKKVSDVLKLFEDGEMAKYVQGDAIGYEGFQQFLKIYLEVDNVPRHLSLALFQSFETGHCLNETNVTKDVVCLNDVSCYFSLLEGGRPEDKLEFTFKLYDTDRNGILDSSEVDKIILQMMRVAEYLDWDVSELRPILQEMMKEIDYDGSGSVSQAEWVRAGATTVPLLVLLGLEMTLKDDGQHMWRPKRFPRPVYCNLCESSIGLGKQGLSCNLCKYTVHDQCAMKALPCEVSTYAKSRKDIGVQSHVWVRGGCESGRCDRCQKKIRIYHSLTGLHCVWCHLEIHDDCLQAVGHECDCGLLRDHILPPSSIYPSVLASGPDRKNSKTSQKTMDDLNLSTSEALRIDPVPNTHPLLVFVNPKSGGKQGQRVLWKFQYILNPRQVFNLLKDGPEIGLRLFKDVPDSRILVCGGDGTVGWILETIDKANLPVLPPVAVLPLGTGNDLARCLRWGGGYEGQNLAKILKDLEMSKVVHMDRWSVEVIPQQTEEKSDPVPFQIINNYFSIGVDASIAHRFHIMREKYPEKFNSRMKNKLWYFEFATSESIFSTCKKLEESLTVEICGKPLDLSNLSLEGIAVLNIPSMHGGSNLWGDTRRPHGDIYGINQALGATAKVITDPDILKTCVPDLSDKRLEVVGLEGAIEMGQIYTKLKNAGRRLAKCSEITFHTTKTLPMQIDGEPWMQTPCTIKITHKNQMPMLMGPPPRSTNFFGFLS
human DGKζ, sequence (Q13574 other isoform, or with tags, fused parts or gaps): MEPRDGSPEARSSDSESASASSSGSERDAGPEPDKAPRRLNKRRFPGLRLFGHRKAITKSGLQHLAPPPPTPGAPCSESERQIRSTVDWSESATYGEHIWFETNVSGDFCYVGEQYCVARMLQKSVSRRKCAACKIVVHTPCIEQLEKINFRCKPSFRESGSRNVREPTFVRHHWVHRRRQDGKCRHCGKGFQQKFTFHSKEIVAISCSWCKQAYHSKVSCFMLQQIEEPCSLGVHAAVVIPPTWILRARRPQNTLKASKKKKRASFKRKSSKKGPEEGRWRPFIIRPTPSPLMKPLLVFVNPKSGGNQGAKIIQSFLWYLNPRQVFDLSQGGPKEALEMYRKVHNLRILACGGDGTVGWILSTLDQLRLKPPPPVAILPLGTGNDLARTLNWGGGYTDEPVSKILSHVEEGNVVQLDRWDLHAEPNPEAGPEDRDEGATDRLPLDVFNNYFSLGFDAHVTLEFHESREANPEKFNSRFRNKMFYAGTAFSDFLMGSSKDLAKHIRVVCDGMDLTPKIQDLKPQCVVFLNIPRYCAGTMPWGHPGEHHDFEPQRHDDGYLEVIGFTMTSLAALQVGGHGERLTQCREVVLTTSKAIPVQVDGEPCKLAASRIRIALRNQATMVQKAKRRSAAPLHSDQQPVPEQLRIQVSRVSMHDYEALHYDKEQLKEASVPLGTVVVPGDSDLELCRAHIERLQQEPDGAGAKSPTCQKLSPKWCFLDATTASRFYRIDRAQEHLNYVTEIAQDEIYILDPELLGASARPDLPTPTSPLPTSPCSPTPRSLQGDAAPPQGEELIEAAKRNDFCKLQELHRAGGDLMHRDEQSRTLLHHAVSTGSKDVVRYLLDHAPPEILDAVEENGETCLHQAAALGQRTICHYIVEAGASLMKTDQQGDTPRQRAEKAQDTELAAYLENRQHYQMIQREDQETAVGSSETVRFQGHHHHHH

Consider `CCOC(=O)[C@H]1C[C@@H]1Oc1ccc(C(C)N2C[C@H](CC)N(c3nc(=O)n(C)c4ccc(C#N)nc34)C[C@H]2CC)cc1` (stereo partly drawn) [Example 259, ethyl (1S,2S)-2-(4-(1-((2R,5S)-4-(6-cyano-1-methyl-2-oxo-1,2-dihydropyrido[3,2-d]pyrimidin-4-yl)-2,5-diethylpiperazin-1-yl)ethyl)phenoxy)cyclopropane-1-carboxylate], for which the half-inhibitory concentration (IC50) at human DGKζ (setting [1]) stood at 1800 nM; at human DGKα (setting [2]), 2170 nM.
In the case of `CC[C@H]1CN(C(C)c2ccc(C3(C#N)CC3)cc2)[C@H](CC)CN1c1nc(=O)n(C)c2ccc(C#N)nc12` (stereo partly drawn) [Example 263, 4-((2S,5R)-4-(1-(4-(1-cyanocyclopropyl)phenyl)ethyl)-2,5-diethylpiperazin-1-yl)-1-methyl-2-oxo-1,2-dihydropyrido[3,2-d]pyrimidine-6-carbonitrile], the IC50 is 62 nM at human DGKζ (setting [1]) and 290 nM at human DGKα (setting [2]).
For `CC[C@H]1CN(C(C)c2ccc(C3(C#N)CC3)cc2)[C@H](CC)CN1c1nc(=O)n(C)c2ccc(C#N)nc12` (stereo partly drawn) [Example 264, 4-((2S,5R)-4-(1-(4-(1-cyanocyclopropyl)phenyl)ethyl)-2,5-diethylpiperazin-1-yl)-1-methyl-2-oxo-1,2-dihydropyrido[3,2-d]pyrimidine-6-carbonitrile], in that order: 1170 nM and 750 nM.
Consider `CC[C@@H]1CN(c2nc(=O)n(C)c3ccc(C#N)nc23)[C@@H](CC)CN1CC1CCC(F)(F)CC1` [Example 269, 4-((2S,5R)-4-((4,4-difluorocyclohexyl)methyl)-2,5-diethylpiperazin-1-yl)-1-methyl-2-oxo-1,2-dihydropyrido[3,2-d]pyrimidine-6-carbonitrile], for which the IC50 at human DGKζ (setting [1]) amounted to 260 nM; on human DGKα (setting [2]), 580 nM.
For `CC[C@H]1CN(C(C)c2ccc(CN3CCC(F)(F)CC3)cc2)[C@H](CC)CN1c1nc(=O)n(C)c2ccc(C#N)nc12` (stereo partly drawn) [Example 277, 4-((2S,5R)-4-(1-(4-((4,4-difluoropiperidin-1-yl)methyl)phenyl)ethyl)-2,5-diethylpiperazin-1-yl)-1-methyl-2-oxo-1,2-dihydropyrido[3,2-d]pyrimidine-6-carbonitrile], in that order: 18 nM and 160 nM.
For `CC[C@H]1CN(C(C)c2ccc(CN3CCCCC3)cc2)[C@H](CC)CN1c1nc(=O)n(C)c2ccc(C#N)nc12` (stereo partly drawn) [Example 281, 4-((2S,5R)-2,5-diethyl-4-(1-(4-(piperidin-1-ylmethyl)phenyl)ethyl)piperazin-1-yl)-1-methyl-2-oxo-1,2-dihydropyrido[3,2-d]pyrimidine-6-carbonitrile], in that order: 43600 nM and 7170 nM.
The matching figures for `CC[C@H]1CN(C(C)c2ccc(CN3CCCCC3)cc2)[C@H](CC)CN1c1nc(=O)n(C)c2ccc(C#N)nc12` (stereo partly drawn) [Example 282, 4-((2S,5R)-2,5-diethyl-4-(1-(4-(piperidin-1-ylmethyl)phenyl)ethyl)piperazin-1-yl)-1-methyl-2-oxo-1,2-dihydropyrido[3,2-d]pyrimidine-6-carbonitrile]: 1160 nM and 150 nM.
`CC[C@H]1CN(C(C)c2ccc(CN3CCC(O)CC3)cc2)[C@H](CC)CN1c1nc(=O)n(C)c2ccc(C#N)nc12` (stereo partly drawn) [Example 285, 4-((2S,5R)-2,5-diethyl-4-(1-(4-((4-hydroxypiperidin-1-yl)methyl)phenyl)ethyl)piperazin-1-yl)-1-methyl-2-oxo-1,2-dihydropyrido[3,2-d]pyrimidine-6-carbonitrile]: the IC50 at human DGKζ (setting [1]) came to 8540 nM; on human DGKα (setting [2]), 4100 nM.
For `CC[C@H]1CN(C(C)c2ccc(CN3CCC(O)CC3)cc2)[C@H](CC)CN1c1nc(=O)n(C)c2ccc(C#N)nc12` (stereo partly drawn) [Example 286, 4-((2S,5R)-2,5-diethyl-4-(1-(4-((4-hydroxypiperidin-1-yl)methyl)phenyl)ethyl)piperazin-1-yl)-1-methyl-2-oxo-1,2-dihydropyrido[3,2-d]pyrimidine-6-carbonitrile], in that order: 125000 nM and 36200 nM.
For `CC[C@H]1CN(C(C)c2ccc(CN3CCN(C)C(=O)C3)cc2)[C@H](CC)CN1c1nc(=O)n(C)c2ccc(C#N)nc12` (stereo partly drawn) [Example 287, 4-((2S,5R)-2,5-diethyl-4-(1-(4-((4-methyl-3-oxopiperazin-1-yl)methyl)phenyl)ethyl)piperazin-1-yl)-1-methyl-2-oxo-1,2-dihydropyrido[3,2-d]pyrimidine-6-carbonitrile], in that order: 500 nM and 210 nM.
The matching figures for `CC[C@H]1CN(C(C)c2ccc(CN3CCN(C)C(=O)C3)cc2)[C@H](CC)CN1c1nc(=O)n(C)c2ccc(C#N)nc12` (stereo partly drawn) [Example 288, 4-((2S,5R)-2,5-diethyl-4-(1-(4-((4-methyl-3-oxopiperazin-1-yl)methyl)phenyl)ethyl)piperazin-1-yl)-1-methyl-2-oxo-1,2-dihydropyrido[3,2-d]pyrimidine-6-carbonitrile]: 31700 nM and 4110 nM.
For `CCC(c1ccc(C2CC2)cc1)N1C[C@H](C)N(c2nc(=O)n(C)c3ccc(C#N)nc23)C[C@H]1CC` (stereo partly drawn) [Example 300, 4-((2S,5R)-4-(1-(4-cyclopropylphenyl)propyl)-5-ethyl-2-methylpiperazin-1-yl)-1-methyl-2-oxo-1,2-dihydropyrido[3,2-d]pyrimidine-6-carbonitrile], the IC50 on human DGKζ (setting [1]) was found to be 22 nM; at human DGKα (setting [2]) it was 13 nM.
Regarding `CCC(c1ccc(C2CC2)cc1)N1C[C@H](C)N(c2nc(=O)n(C)c3ccc(C#N)nc23)C[C@H]1CC` (stereo partly drawn) [Example 301, 4-((2S,5R)-4-(1-(4-cyclopropylphenyl)propyl)-5-ethyl-2-methylpiperazin-1-yl)-1-methyl-2-oxo-1,2-dihydropyrido[3,2-d]pyrimidine-6-carbonitrile], the 50% inhibitory concentration (IC50) at human DGKζ (setting [1]) amounted to 430 nM; on human DGKα (setting [2]) it was 130 nM.
Regarding `CCC(c1ccc(C2CC2)cc1F)N1C[C@H](C)N(c2nc(=O)n(C)c3ccc(C#N)nc23)C[C@H]1CC` (stereo partly drawn) [Example 303, 4-((2S,5R)-4-(1-(4-cyclopropyl-2-fluorophenyl)propyl)-5-ethyl-2-methylpiperazin-1-yl)-1-methyl-2-oxo-1,2-dihydropyrido[3,2-d]pyrimidine-6-carbonitrile], the IC50 came to 5070 nM on human DGKζ (setting [1]) and 1770 nM at human DGKα (setting [2]).
Regarding `CCOc1ccc(C(CC)N2C[C@H](C)N(c3nc(=O)n(C)c4ccc(C#N)nc34)C[C@H]2CC)cc1` (stereo partly drawn) [Example 307, 4-((2S,5R)-4-(1-(4-ethoxyphenyl)propyl)-5-ethyl-2-methylpiperazin-1-yl)-1-methyl-2-oxo-1,2-dihydropyrido[3,2-d]pyrimidine-6-carbonitrile], the results for the IC50 at human DGKζ (setting [3]) and at human DGKα (setting [4]) were 770 nM and 140 nM, respectively.
The matching figures for `CCOc1ccc(CN2C[C@H](C)N(c3nc(=O)n(C)c4ccc(C#N)nc34)C[C@H]2CC)cc1` [Example 310, 4-((2S,5R)-4-(4-ethoxybenzyl)-5-ethyl-2-methylpiperazin-1-yl)-1-methyl-2-oxo-1,2-dihydropyrido[3,2-d]pyrimidine-6-carbonitrile]: 280 nM and 77 nM.
Take `CCC(c1ccc(OC2CC2)cc1)N1C[C@H](C)N(c2nc(=O)n(C)c3ccc(C#N)nc23)C[C@H]1CC` (stereo partly drawn) [Example 311, 4-((2S,5R)-4-(1-(4-cyclopropoxyphenyl)propyl)-5-ethyl-2-methylpiperazin-1-yl)-1-methyl-2-oxo-1,2-dihydropyrido[3,2-d]pyrimidine-6-carbonitrile]: the values for the IC50 on human DGKζ (setting [3]) and on human DGKα (setting [4]) were 6 nM and 13 nM, respectively.
For `CCC(c1ccc(OC2CC2)cc1)N1C[C@H](C)N(c2nc(=O)n(C)c3ccc(C#N)nc23)C[C@H]1CC` (stereo partly drawn) [Example 312, 4-((2S,5R)-4-(1-(4-cyclopropoxyphenyl)propyl)-5-ethyl-2-methylpiperazin-1-yl)-1-methyl-2-oxo-1,2-dihydropyrido[3,2-d]pyrimidine-6-carbonitrile], in that order: 870 nM and 600 nM.
For `CC[C@@H]1CN(c2nc(=O)n(C)c3ccc(C#N)nc23)[C@@H](C)CN1C(c1ccc(F)cc1)c1cccc(C(F)F)n1` (stereo partly drawn) [Example 316, 4-((2 S,5R)-4-((6-(difluoromethyl)pyridin-2-yl)(4-fluorophenyl)methyl)-5-ethyl-2-methylpiperazin-1-yl)-1-methyl-2-oxo-1,2-dihydropyrido[3,2-d]pyrimidine-6-carbonitrile], in that order: 31 nM and 87 nM.
The matching figures for `CCC(c1ccc(Br)cc1)N1C[C@H](C)N(c2nc(=O)n(C)c3ccc(C#N)nc23)C[C@H]1CC` (stereo partly drawn) [Example 321, 4-((2 S,5R)-4-(1-(4-bromophenyl)propyl)-5-ethyl-2-methylpiperazin-1-yl)-1-methyl-2-oxo-1,2-dihydropyrido[3,2-d]pyrimidine-6-carbonitrile]: 38 nM and 10 nM.
Consider `CCC(c1ccc(Br)cc1)N1C[C@H](C)N(c2nc(=O)n(C)c3ccc(C#N)nc23)C[C@H]1CC` (stereo partly drawn) [Example 322, 4-((2 S,5R)-4-(1-(4-bromophenyl)propyl)-5-ethyl-2-methylpiperazin-1-yl)-1-methyl-2-oxo-1,2-dihydropyrido[3,2-d]pyrimidine-6-carbonitrile], for which the half-inhibitory concentration (IC50) on human DGKζ (setting [3]) is 760 nM; at human DGKα (setting [4]), 7 nM.
Consider `CCC(c1ccc(C2OCCO2)cc1)N1C[C@H](C)N(c2nc(=O)n(C)c3ccc(C#N)nc23)C[C@H]1CC` (stereo partly drawn) [Example 332, 4-((2S,5R)-4-(1-(4-(1,3-dioxolan-2-yl)phenyl)propyl)-5-ethyl-2-methylpiperazin-1-yl)-1-methyl-2-oxo-1,2-dihydropyrido[3,2-d]pyrimidine-6-carbonitrile], for which the IC50 at human DGKζ (setting [3]) amounted to 720 nM; on human DGKα (setting [4]) it was 74 nM.

In general, IC50 refers to the concentration at which inhibition is half-maximal.
